Test results from article PMC2702710 (The Journal of organic chemistry, 2009).
Each block holds one compound with its values, some of them ahead of it.

How the values were obtained:
Icmt [1] = biological target: T1, Icmt (Homo sapiens, UniProt O60725); assay: Vapor diffusion assay; assay type: biochemical; conditions: for IC50: read-out: Human Icmt IC50, 25 μM AFC, 20 μM 14C-SAM, 30 min at 30°C
Icmt [2] = biological target: T1, Icmt; assay: Icmt scintillation proximity assay; assay type: biochemical; conditions: initial SPA screen, 50 μM
Icmt [3] = biological target: T1, Icmt; assay: Preliminary screen for Icmt substrate activity; assay type: biochemical
cancer cells = conditions: cited from earlier work

T1 sequence (O60725 whole entry, the tested form may be a part): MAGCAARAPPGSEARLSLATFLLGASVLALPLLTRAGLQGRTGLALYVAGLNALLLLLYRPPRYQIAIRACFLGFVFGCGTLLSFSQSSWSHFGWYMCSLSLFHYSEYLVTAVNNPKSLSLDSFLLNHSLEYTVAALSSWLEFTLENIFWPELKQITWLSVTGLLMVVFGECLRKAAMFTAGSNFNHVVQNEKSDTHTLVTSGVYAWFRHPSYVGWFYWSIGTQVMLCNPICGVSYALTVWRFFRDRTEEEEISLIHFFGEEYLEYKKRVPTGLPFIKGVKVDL

Compound: CC(C)=CCC/C(C)=C/CC/C(C)=C/CSC[C@H](NC(=O)CC12CC3CC(CC(C3)C1)C2)C(=O)O [4a, N-1-adamantylacetylcarbonyl-L-cysteine[S-(2E,6E)-3,7,11-trimethyldodeca-2,6,10-trienyl]-OH]
- IC50 (Icmt [1]; VDA): 18.8 µM

Compound: CC(C)=CCC/C(C)=C/CC/C(C)=C/CSC[C@H](NC(=O)C12CC3CC(CC1C3)C2)C(=O)O [4b, N-3-noradamantanecarbonyl-L-cysteine[S-(2E,6E)-3,7,11-trimethyldodeca-2,6,10-trienyl]-OH]
- IC50 (Icmt [1]; VDA): 16.7 µM

Compound: CC(C)=CCC/C(C)=C/CC/C(C)=C/CSC[C@H](NC(=O)C[C@H]1C[C@H]2CCC1C2)C(=O)O [4c, N-2-((2R,4S)-bicyclo[2.2.1]heptan-2-yl)acetyl-L-cysteine[S-(2E,6E)-3,7,11-trimethyldodeca-2,6,10-trienyl]-OH]
- activity in the SPA (Icmt [2]): inactive

Compound: CCCCCC12CCC(C(=O)N[C@@H](CSC/C=C(\C)CC/C=C(\C)CCC=C(C)C)C(=O)O)(CC1)CC2 [4d, N-4-pentylbicyclo[2.2.2]octane-1-carbonyl-L-cysteine[S-(2E,6E)-3,7,11-trimethyldodeca-2,6,10-trienyl]-OH]
- IC50 (Icmt [1]; VDA): 16.7 µM

Compound: CC(C)=CCC/C(C)=C/CC/C(C)=C/CSC[C@H](NC(=O)[C@]12CCC(CC1=O)C2(C)C)C(=O)O [4e, N-(1S)-7,7-dimethyl-2-oxobicyclo[2.2.1]heptane-1-carbonyl-L-cysteine[S-(2E,6E)-3,7,11-trimethyldodeca-2,6,10-trienyl]-OH]
- IC50 (Icmt [1]; VDA): 15.6 µM

Compound: CC(C)=CCC/C(C)=C/CC/C(C)=C/CSC[C@H](NC(=O)c1ccccc1-c1ccccc1)C(=O)O [4f, N-2-phenylbenzoyl-L-cysteine[S-(2E,6E)-3,7,11-trimethyldodeca-2,6,10-trienyl]-OH]
- IC50 (Icmt [1]; VDA): 12.1 µM

Compound: CC(C)=CCC/C(C)=C/CC/C(C)=C/CSC[C@H](NC(=O)Cc1cccc2ccccc12)C(=O)O [4g, N-1-napthylacetylcarbonyl-L-cysteine[S-(2E,6E)-3,7,11-trimethyldodeca-2,6,10-trienyl]-OH]
- activity in the SPA (Icmt [2]): inactive

Compound: CC(C)=CCC/C(C)=C/CC/C(C)=C/CSC[C@H](NC(=O)CO[C@@H]1C[C@H](C)CC[C@H]1C(C)C)C(=O)O [4h, N-2-((1R,2S,5R)-2-isopropyl-5-methylcyclohexyloxy)acetyl-L-cysteine[S-(2E,6E)-3,7,11-trimethyldodeca-2,6,10-trienyl]-OH]
- IC50 (Icmt [1]; VDA): 22.9 µM

Compound: CCCCCCCCC(=O)N[C@@H](CSC/C=C(\C)CC/C=C(\C)CCC=C(C)C)C(=O)O [4i, N-octylcarbonyl-L-cysteine[S-(2E,6E)-3,7,11-trimethyldodeca-2,6,10-trienyl]-OH]
- activity in the SPA (Icmt [2]): inactive

Compound: CC(C)=CCC/C(C)=C/CC/C(C)=C/CSC[C@H](NC(=O)CN1C(=O)OC[C@@H]1c1ccccc1)C(=O)O [5f, N-2-((S)-4-phenyl-2-oxo-oxazolidin-3-yl)acetyl-L-cysteine[S-(2E,6E)-3,7,11-trimethyldodeca-2,6,10-trienyl]-OH]
- Icmt substrate activity (Icmt [3]): more efficient Icmt substrates than the prototypical N-acetylfarnesylcysteine

Compound: CC(C)=CCC/C(C)=C/CC/C(C)=C/CSC[C@H](NC(=O)CCS(=O)(=O)c1ccccc1)C(=O)O [5l, N-3-(phenylsulfonyl)propanoyl-L-cysteine[S-(2E,6E)-3,7,11-trimethyldodeca-2,6,10-trienyl]-OH]
- Icmt substrate activity (Icmt [3]): more efficient Icmt substrates than the prototypical N-acetylfarnesylcysteine

Compound: CC(C)=CCC(=CCSC[C@H](NC(=O)c1ccccc1Oc1ccccc1)C(=O)O)CCc1ccc(-c2ccccc2)cc1 [compound 7, N-2-Phenoxybenzoyl-S-3-(3-methyl-but-2-enyl)-5-(4-biphenyl)pent-2-enyl-L-cysteine]
- Icmt substrate activity (Icmt [3]): no substrate activity

Compound: CCCCCCCCn1cc(CC(N)=O)c2cc(-c3cccc(C)c3)ccc21 [cysmethynil]
- activity against cancer cells (cancer cells): exhibits activity against cancer cells

More lines, now with the values ahead:

- inhibition of Icmt (methylation of AFC) (Icmt [1]; VDA, at a concentration of 10 μM): ~80%
- IC50 (Icmt [1]; VDA): 4.3 µM
Compound: CC(C)=CCC/C(C)=C/CC/C(C)=C/CSC[C@H](NC(=O)c1ccccc1Oc1ccccc1)C(=O)O [5e, N-(2-oxyphenyl)benzoyl-L-cysteine[S-(2E,6E)-3,7,11-trimethyldodeca-2,6,10-trienyl]-OH]

- Icmt inhibitory potency (in words) (Icmt [1]): potent analog
Compound: N-2-(aminophenyl)benzoyl-L-cysteine[S-(2E,6E)-3,7,11-trimethyldodeca-2,6,10-trienyl]-OH [5h]
